From paper PMC4304871 (Nature structural & molecular biology, 2014)

System: 10E8 antibody
Experiment: Competitive 10E8 ELISA binding assay
Set-up: species or system human

10E8 Fab-binding activity (in words): no binding activity
Sequence: ELXKWAXLWNWFNITNZLWXIK (bicyclic or more) [SAH-MPER(662–683)(C,q)]
